ChEMBL document CHEMBL5291721, “A preclinical secondary pharmacology resource illuminates target-adverse drug reaction associations of marketed drugs” (Nat Commun, 2023)

Key:
[1] = target: Beta-1 adrenergic receptor (Homo sapiens, UniProt P08588); assay type: functional
[2] = target: Muscarinic acetylcholine receptor M3 (Homo sapiens, UniProt P20309)
Cannabinoid receptor 1 = Cannabinoid receptor 1 (Homo sapiens, UniProt P21554)
Progesterone receptor = target: T1, Progesterone receptor (Homo sapiens, UniProt P06401); assay type: functional
T1 sequence (P06401 whole entry): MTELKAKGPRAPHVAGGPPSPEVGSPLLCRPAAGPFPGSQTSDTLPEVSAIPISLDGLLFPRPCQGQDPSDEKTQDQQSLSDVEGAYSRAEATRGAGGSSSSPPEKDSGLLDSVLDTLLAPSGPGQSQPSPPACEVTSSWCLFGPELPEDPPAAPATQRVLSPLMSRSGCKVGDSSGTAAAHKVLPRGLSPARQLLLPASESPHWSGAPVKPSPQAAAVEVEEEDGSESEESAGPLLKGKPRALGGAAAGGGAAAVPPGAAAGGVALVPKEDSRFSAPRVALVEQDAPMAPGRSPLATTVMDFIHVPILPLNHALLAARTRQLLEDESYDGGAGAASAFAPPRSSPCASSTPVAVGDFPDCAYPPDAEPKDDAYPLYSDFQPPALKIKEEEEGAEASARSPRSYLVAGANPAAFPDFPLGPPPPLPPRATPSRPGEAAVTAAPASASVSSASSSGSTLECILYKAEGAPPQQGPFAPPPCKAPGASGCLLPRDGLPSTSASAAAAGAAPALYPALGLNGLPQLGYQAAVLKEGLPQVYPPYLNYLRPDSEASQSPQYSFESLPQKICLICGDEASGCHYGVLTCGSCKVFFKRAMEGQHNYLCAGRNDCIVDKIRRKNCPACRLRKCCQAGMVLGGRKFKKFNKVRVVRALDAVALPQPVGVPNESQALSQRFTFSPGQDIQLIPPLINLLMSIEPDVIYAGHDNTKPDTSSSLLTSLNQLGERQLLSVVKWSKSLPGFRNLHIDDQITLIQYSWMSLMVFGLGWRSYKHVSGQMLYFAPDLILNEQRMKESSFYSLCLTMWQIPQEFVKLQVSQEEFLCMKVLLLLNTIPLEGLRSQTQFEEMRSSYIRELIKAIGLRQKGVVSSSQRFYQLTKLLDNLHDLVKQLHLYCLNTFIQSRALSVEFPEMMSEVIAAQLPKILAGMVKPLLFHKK

[3] = target: T2, Muscarinic acetylcholine receptor M1 (Homo sapiens, UniProt P11229); assay type: functional, cell-based
T2 sequence (P11229 whole entry): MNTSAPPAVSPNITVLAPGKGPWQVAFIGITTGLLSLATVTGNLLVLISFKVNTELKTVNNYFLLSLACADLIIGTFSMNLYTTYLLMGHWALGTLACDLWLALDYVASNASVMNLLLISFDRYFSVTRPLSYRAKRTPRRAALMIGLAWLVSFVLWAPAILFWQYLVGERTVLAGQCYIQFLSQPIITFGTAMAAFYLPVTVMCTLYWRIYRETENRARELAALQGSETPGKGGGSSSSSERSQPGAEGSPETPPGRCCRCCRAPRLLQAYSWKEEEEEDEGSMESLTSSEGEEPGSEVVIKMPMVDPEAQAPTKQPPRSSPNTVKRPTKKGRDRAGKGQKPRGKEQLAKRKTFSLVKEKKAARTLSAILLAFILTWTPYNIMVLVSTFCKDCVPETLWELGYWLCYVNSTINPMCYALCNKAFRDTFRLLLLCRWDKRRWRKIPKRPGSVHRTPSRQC

D(3) dopamine receptor = D(3) dopamine receptor (Homo sapiens, UniProt P35462)
[4] = target: T3, Amine oxidase [flavin-containing] A (Homo sapiens, UniProt P21397); assay type: functional
T3 sequence (P21397 whole entry): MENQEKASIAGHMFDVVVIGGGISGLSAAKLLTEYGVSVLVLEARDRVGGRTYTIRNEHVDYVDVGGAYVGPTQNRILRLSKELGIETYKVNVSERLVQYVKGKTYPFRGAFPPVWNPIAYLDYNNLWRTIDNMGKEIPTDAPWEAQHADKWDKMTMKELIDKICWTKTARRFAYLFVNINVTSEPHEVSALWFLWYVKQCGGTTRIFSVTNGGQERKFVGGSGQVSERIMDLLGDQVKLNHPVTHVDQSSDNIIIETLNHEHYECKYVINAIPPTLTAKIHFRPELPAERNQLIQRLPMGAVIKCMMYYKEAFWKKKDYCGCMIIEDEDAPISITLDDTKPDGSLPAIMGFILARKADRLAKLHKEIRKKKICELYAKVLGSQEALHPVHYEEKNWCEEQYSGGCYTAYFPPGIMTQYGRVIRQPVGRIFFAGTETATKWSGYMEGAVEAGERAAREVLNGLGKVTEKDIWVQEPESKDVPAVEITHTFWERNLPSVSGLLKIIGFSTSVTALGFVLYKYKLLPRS

[5] = target: Sodium-dependent noradrenaline transporter (Homo sapiens, UniProt P23975)
[6] = target: Sodium-dependent dopamine transporter (Homo sapiens, UniProt Q01959)
Thromboxane A2 receptor = target: T4, Thromboxane A2 receptor (Homo sapiens, UniProt P21731); assay type: functional, cell-based
T4 sequence (P21731 whole entry): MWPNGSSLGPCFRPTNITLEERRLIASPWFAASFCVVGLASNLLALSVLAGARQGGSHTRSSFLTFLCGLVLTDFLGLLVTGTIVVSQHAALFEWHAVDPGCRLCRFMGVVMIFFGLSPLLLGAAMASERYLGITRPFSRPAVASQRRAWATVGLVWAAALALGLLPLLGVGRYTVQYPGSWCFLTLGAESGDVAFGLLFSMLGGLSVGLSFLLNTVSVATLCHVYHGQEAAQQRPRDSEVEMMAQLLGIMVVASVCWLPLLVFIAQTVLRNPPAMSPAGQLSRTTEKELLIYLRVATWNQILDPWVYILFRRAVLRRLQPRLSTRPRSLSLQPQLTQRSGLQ
Further: assay procedure not described here.

Muscarinic acetylcholine receptor M3, sequence (P20309 whole entry): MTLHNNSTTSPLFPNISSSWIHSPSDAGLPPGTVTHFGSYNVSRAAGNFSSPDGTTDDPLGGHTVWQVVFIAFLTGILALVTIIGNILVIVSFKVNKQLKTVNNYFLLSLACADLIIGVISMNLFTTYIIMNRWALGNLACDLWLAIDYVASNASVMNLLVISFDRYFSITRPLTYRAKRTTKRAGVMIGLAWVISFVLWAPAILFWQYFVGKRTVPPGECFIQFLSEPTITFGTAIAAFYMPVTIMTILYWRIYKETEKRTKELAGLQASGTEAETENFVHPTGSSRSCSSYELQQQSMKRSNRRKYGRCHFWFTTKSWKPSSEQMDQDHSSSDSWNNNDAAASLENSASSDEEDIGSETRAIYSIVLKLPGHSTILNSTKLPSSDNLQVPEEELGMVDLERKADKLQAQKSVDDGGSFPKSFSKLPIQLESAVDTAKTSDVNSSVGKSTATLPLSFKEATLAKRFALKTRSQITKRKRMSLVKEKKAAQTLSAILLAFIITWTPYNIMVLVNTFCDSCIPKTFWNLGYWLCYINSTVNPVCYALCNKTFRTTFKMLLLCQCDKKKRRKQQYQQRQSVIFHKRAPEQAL
Sodium-dependent noradrenaline transporter, sequence (P23975 whole entry): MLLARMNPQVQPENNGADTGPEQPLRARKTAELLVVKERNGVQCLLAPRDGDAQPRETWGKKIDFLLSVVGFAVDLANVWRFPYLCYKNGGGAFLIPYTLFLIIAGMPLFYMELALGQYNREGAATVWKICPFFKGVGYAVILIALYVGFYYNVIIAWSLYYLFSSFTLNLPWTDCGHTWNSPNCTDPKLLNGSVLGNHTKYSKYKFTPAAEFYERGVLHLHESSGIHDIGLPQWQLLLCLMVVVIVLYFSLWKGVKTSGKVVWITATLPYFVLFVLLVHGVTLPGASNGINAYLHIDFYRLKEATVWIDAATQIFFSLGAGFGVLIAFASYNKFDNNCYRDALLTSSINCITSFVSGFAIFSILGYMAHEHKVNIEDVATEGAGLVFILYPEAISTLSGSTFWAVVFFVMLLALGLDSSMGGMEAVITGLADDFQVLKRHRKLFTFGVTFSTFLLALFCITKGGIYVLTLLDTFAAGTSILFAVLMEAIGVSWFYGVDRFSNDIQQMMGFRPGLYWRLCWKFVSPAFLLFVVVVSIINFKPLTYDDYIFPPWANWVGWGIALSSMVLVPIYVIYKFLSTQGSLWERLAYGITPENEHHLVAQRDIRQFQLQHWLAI
Sodium-dependent dopamine transporter, sequence (Q01959 whole entry): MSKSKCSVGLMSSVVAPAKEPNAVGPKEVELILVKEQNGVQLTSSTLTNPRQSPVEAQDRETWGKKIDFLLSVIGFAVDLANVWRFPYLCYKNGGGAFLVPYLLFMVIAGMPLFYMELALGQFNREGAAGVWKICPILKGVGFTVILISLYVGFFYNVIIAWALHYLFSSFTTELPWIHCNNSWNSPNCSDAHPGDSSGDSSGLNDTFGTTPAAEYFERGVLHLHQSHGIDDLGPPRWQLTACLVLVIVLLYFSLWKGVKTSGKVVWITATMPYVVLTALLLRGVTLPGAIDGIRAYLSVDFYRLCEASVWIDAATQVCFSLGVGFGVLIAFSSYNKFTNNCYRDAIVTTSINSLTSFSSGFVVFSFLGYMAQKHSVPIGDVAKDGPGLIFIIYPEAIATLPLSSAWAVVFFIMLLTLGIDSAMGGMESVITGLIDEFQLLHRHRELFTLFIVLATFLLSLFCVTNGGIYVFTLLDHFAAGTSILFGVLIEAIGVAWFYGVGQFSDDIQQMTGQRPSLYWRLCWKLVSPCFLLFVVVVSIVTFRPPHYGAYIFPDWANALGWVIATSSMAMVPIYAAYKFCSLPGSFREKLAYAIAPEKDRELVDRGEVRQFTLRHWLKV
Beta-1 adrenergic receptor, sequence (P08588 whole entry): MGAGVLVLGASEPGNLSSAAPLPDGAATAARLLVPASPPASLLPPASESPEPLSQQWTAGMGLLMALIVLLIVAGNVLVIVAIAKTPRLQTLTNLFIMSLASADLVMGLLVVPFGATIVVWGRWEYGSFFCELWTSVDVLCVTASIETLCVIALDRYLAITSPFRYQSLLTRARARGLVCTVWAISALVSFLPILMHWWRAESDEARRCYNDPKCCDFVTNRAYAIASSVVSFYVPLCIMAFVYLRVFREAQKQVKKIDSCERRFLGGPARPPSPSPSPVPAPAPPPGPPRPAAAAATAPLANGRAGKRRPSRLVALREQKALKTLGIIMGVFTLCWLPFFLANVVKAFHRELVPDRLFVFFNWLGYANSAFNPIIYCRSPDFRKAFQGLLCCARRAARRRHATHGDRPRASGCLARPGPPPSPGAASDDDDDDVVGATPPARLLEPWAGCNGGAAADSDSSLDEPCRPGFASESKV
Cannabinoid receptor 1, sequence (P21554 whole entry): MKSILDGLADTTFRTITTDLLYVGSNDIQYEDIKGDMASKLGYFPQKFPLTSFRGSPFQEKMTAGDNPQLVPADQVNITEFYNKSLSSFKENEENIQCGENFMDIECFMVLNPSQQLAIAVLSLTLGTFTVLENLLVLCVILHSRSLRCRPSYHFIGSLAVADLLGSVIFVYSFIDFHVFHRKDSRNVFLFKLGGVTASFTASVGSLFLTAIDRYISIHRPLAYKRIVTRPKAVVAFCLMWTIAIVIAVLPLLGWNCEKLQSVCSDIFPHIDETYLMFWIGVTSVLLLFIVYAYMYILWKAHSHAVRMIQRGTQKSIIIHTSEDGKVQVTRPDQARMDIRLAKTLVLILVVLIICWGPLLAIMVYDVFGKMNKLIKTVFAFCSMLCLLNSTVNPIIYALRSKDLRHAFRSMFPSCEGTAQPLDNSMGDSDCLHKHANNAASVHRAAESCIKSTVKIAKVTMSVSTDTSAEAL
D(3) dopamine receptor, sequence (P35462 whole entry): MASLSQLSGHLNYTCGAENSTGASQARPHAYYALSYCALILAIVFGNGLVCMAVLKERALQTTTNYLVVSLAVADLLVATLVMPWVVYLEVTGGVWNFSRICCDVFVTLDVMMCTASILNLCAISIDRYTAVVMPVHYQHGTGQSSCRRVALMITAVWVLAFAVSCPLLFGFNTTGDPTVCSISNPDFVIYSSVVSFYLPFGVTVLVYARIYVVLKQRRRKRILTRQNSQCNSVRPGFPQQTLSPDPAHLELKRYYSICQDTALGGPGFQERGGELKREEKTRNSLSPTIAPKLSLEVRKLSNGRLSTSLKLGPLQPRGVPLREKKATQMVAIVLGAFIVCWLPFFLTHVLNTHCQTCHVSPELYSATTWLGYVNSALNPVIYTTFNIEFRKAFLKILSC

SMILES	AC50 [1] [µM]	AC50 [2] [µM]	AC50 (Cannabinoid receptor 1) [µM]	AC50 (Progesterone receptor) [µM]	AC50 [3] [µM]	AC50 (D(3) dopamine receptor) [µM]	AC50 [4] [µM]	AC50 [5] [µM]	AC50 [6] [µM]	AC50 (Thromboxane A2 receptor) [µM]
C=CCNc1nc(NCC=C)nc(N2CCN(C(c3ccc(F)cc3)c3ccc(F)cc3)CC2)n1 [ALMITRINE]	> 30	> 30	> 30	> 30	–	–	–	–	–	–
C=CCSCC1Nc2cc(Cl)c(S(N)(=O)=O)cc2S(=O)(=O)N1 (stereo unspecified) [ALTHIAZIDE]	–	–	–	–	> 30	> 30	> 30	> 30	> 30	> 30
COc1cc(N2CCC(N3CCN(C)CC3)CC2)ccc1Nc1ncc(Cl)c(Nc2ccccc2P(C)(C)=O)n1 [BRIGATINIB]	–	–	–	–	> 30	> 30	> 30	> 30	> 30	> 30
CCCc1nc(C(C)(C)O)c(C(=O)O)n1Cc1ccc(-c2ccccc2-c2nnn[nH]2)cc1 [OLMESARTAN]	–	–	–	–	> 30	> 30	> 30	> 30	> 30	> 30
c1ccc2c(c1)CCc1ccccc1N2C1CN2CCC1CC2 (stereo unspecified) [QUINUPRAMINE]	–	–	–	–	> 30	6.47	> 30	4.32	2.62	> 30
Cc1cc(N)c2ccccc2[n+]1CCCCCCCCCC[n+]1c(C)cc(N)c2ccccc21	–	–	–	–	> 30	0.0798	16.8	1.47	0.89	> 30
CCOC(=O)N1CSC[C@H]1C(=O)O [TELMESTEINE]	–	–	–	–	> 30	> 30	> 30	> 30	> 30	> 30
CC1=CCC(C(C)(C)O)CC1O (stereo unspecified) [SOBREROL]	–	–	–	–	> 30	> 30	> 30	> 30	> 30	> 30
NCC(CC(=O)O)c1ccccc1 (stereo unspecified) [PHENIBUT]	–	–	–	–	> 30	> 30	> 30	> 30	> 30	> 30
CN1C(=O)/C(=N\NC(N)=S)c2ccccc21 [METHISAZONE]	–	–	–	–	26.4	> 30	> 30	> 30	> 30	21.8
CCOC(=O)[C@H](CCc1ccccc1)N[C@@H](C)C(=O)N(CC(=O)O)C1Cc2ccccc2C1	–	–	–	–	> 30	> 30	> 30	> 30	> 30	> 30
Cc1ncc(COP(=O)(O)O)c(C=O)c1O [PYRIDOXAL PHOSPHATE ANHYDROUS]	–	–	–	–	> 30	> 30	> 30	> 30	> 30	> 30
CC(C)[C@H](N)C(=O)OCC(CO)OCn1cnc2c(=O)nc(N)[nH]c21 (stereo partly specified) [VALGANCICLOVIR]	> 30	> 30	> 30	> 30	–	–	–	–	–	–
CC1OC2(CS1)CN1CCC2CC1 (stereo unspecified) [CEVIMELINE]	> 10	> 30	> 10	> 10	–	–	–	–	–	–
C[C@H](Cc1cc2c(c(C(N)=O)c1)N(CCCO)CC2)NCCOc1ccccc1OCC(F)(F)F [SILODOSIN]	–	–	–	–	> 30	0.0483	> 30	> 30	18.6	> 30
C[C@H](Cc1ccc(O)c(O)c1)[C@@H](C)Cc1ccc(O)c(O)c1 [MASOPROCOL]	> 30	> 30	23.9	> 30	–	–	–	–	–	–
Clc1ccc(C(Cn2ccnc2)OCc2ccsc2Cl)c(Cl)c1 (stereo unspecified) [TIOCONAZOLE]	24.3	26	> 30	> 30	–	–	–	–	–	–
OC1(c2ccc(Cl)cc2)c2ccccc2C2=NCCN21 (stereo unspecified) [MAZINDOL]	> 30	> 30	> 10	> 30	–	–	–	–	–	–
COc1cc2c(cc1OC)CC(=O)N(CCCN(C)C[C@H]1Cc3cc(OC)c(OC)cc31)CC2 [IVABRADINE]	–	–	–	–	> 30	2.61	> 30	> 30	> 30	> 30
CC(N)Cc1ccc(O)cc1 (stereo unspecified) [HYDROXYAMPHETAMINE]	–	–	–	–	> 30	> 30	> 30	9.66	> 30	> 30
CCC1(c2ccccc2)CCC(=O)NC1=O (stereo unspecified) [GLUTETHIMIDE]	> 10	> 30	> 10	> 10	–	–	–	–	–	–
CCN(CCCc1ccccc1)CCCc1ccccc1 [ALVERINE]	–	–	–	–	> 30	1.96	> 30	1.15	0.481	> 30
CC(C)COCC(CN(Cc1ccccc1)c1ccccc1)N1CCCC1 (stereo unspecified) [BEPRIDIL]	–	17	10	> 30	–	–	–	–	–	–
CCCC(CCC)C(N)=O [VALPROMIDE]	> 10	> 30	> 10	–	–	–	–	–	–	–
CC(C)(C)C(=O)OCC(=O)[C@H]1CC[C@H]2[C@@H]3CCC4=CC(=O)CC[C@]4(C)[C@H]3CC[C@]12C [DESOXYCORTICOSTERONE PIVALATE]	> 10	> 30	> 10	0.213	–	–	–	–	–	–
CCC(=O)O[C@H]1CC[C@H]2[C@@H]3CCC4=CC(=O)CC[C@]4(C)[C@H]3CC[C@]12C [TESTOSTERONE PROPIONATE]	> 10	> 10	> 10	0.328	–	–	–	–	–	–
[H]/N=C(/N)N/C(=N/[H])NCCc1ccccc1 [PHENFORMIN]	> 10	> 30	> 30	–	–	–	–	–	–	–
CCOC(=O)c1cncn1[C@H](C)c1ccccc1 [ETOMIDATE]	> 10	> 30	> 10	> 10	–	–	–	–	–	–
CN1CCC(=C2c3ccccc3CCc3cccnc32)CC1 [AZATADINE]	> 10	> 30	> 10	–	–	–	–	–	–	–
Nc1ncn([C@H]2C[C@H](O)[C@@H](CO)O2)c(=O)n1 [DECITABINE]	19.1	> 30	> 30	> 30	–	–	–	–	–	–
